Experimental data as given in ChEMBL document CHEMBL1201862, “PubChem BioAssay data set” (2004).
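Each compound was tested at five concentrations against cells in 96-well plates for 48 hours. GI50: concentration for 50% inhibition of growth.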 Calls of active or inactive are those of the source. Cut-off read from the data, not from the text of the source: active = GI50 up to about 1.1 µM and inactive = higher.

Columns and labels:
Assay in all cases: DTP human tumour cell line panel, 48 h
A498 = test system: A498
A549 = test system: A549
CCRF-CEM = test system: CCRF-CEM
DLD-1 = test system: DLD-1
HOP-92 = test system: HOP-92
HT-29 = test system: HT-29
IGROV-1 = test system: IGROV-1
K562 = test system: K562
MOLT-4 = test system: MOLT-4
NCI-H23 = test system: NCI-H23
RPMI-8226 = test system: RPMI-8226
SF-295 = test system: SF-295
SK-MEL-2 = test system: SK-MEL-2
SNB-19 = test system: SNB-19
UACC-62 = test system: UACC-62
UO-31 = test system: UO-31
KM-20L2 = test system: KM-20L2
BT-549 = test system: BT-549
MCF7 = test system: MCF7
T47D = test system: T47D

Measured: GI50

c1ccc(SC(CCCCOC2CCCCO2)Sc2ccccc2)cc1 (stereo unspecified)
inactive: A498 88.7 µM | A549 93.3 µM | CCRF-CEM 29.2 µM | DLD-1 > 100 µM | HOP-92 11.8 µM | HT-29 52 µM | IGROV-1 82.8 µM | K562 52 µM | MOLT-4 23.3 µM | NCI-H23 40.8 µM | RPMI-8226 32.4 µM | SF-295 > 100 µM | SK-MEL-2 22.6 µM | SNB-19 > 100 µM | UACC-62 > 100 µM | UO-31 13.4 µM

CC(=O)Nc1ccc(C(=O)N2N=C(C)/C(=C/c3cccc([N+](=O)[O-])c3)C2=O)cc1
inactive: A549 > 100 µM | CCRF-CEM > 100 µM | DLD-1 > 100 µM | HT-29 > 100 µM | K562 > 100 µM | MOLT-4 > 100 µM | NCI-H23 > 100 µM | RPMI-8226 > 100 µM | SF-295 > 100 µM | SNB-19 > 100 µM | UO-31 > 100 µM

CC1=C(c2ccccc2)CON(c2ccccc2)C1
inactive: A549 54.5 µM | CCRF-CEM 25.1 µM | HT-29 36.9 µM | IGROV-1 43.3 µM | K562 30.1 µM | KM-20L2 31.4 µM | MOLT-4 29.6 µM | NCI-H23 51.5 µM | RPMI-8226 28.4 µM | SF-295 30.6 µM | SK-MEL-2 26.6 µM | SNB-19 39.4 µM | UACC-62 38.5 µM | UO-31 29.7 µM

CCOP(=O)(OCC)OC1c2[nH]cc(C(=O)OCc3ccccc3)c2-c2cc(C(=O)OC)[nH]c2C1OC (stereo unspecified)
inactive: A498 10.6 µM | A549 5.85 µM | BT-549 12.1 µM | CCRF-CEM > 24.8 µM | HOP-92 4.28 µM | HT-29 3.24 µM | IGROV-1 7.59 µM | K562 > 20 µM | MCF7 8.67 µM | MOLT-4 3.58 µM | NCI-H23 13.4 µM | RPMI-8226 5.62 µM | SF-295 5 µM | SK-MEL-2 9.4 µM | SNB-19 14.7 µM | T47D 7.91 µM | UACC-62 7.05 µM | UO-31 4.57 µM

COc1ccc2c3c([nH]c2c1[N+](=O)[O-])C(C)N(Cc1ccc([N+](=O)[O-])cc1)CC3 (stereo unspecified)
inactive: A498 14.8 µM | A549 > 100 µM | CCRF-CEM 6.76 µM | HT-29 8.75 µM | IGROV-1 39.8 µM | K562 3.22 µM | KM-20L2 10.8 µM | MOLT-4 2.99 µM | NCI-H23 6.7 µM | RPMI-8226 4.12 µM | SF-295 16.3 µM | SK-MEL-2 14.5 µM | SNB-19 19.3 µM | UACC-62 15.8 µM | UO-31 13.2 µM

O=P(O)(CCP(=O)(O)c1ccccc1)c1ccccc1
inactive: A498 > 100 µM | A549 > 100 µM | BT-549 > 100 µM | CCRF-CEM > 100 µM | HOP-92 > 100 µM | HT-29 > 100 µM | IGROV-1 > 100 µM | K562 > 100 µM | MCF7 > 100 µM | MOLT-4 > 100 µM | NCI-H23 > 100 µM | RPMI-8226 > 100 µM | SF-295 > 100 µM | SK-MEL-2 > 100 µM | SNB-19 > 100 µM | T47D > 100 µM | UACC-62 > 100 µM | UO-31 > 100 µM

CC(=O)SC(C[N+](=O)[O-])c1ccccc1 (stereo unspecified)
inactive: A498 5.43 µM | A549 3.82 µM | BT-549 2.22 µM | CCRF-CEM 2.84 µM | HOP-92 12.6 µM | HT-29 2.06 µM | IGROV-1 2.32 µM | K562 2.41 µM | MCF7 1.74 µM | MOLT-4 1.72 µM | NCI-H23 12 µM | RPMI-8226 2.05 µM | SF-295 6.15 µM | SK-MEL-2 19.8 µM | SNB-19 11.9 µM | T47D 10.4 µM | UACC-62 13.9 µM | UO-31 2.3 µM

COc1ccc(/C=N/NC(=O)C2=C(N)N(c3ccccc3)C(=C(C#N)C#N)S2)cc1
inactive: A498 22.6 µM | A549 > 100 µM | BT-549 > 100 µM | CCRF-CEM > 100 µM | DLD-1 > 100 µM | HOP-92 39.3 µM | HT-29 > 100 µM | IGROV-1 > 100 µM | K562 > 100 µM | MCF7 > 100 µM | MOLT-4 > 100 µM | NCI-H23 > 100 µM | RPMI-8226 > 100 µM | SF-295 45 µM | SNB-19 70 µM | UACC-62 > 100 µM | UO-31 > 100 µM

NC(=O)NC1NC(=O)NC1=O (stereo unspecified) [ALLANTOIN]
inactive: A498 > 100 µM | A549 > 100 µM | BT-549 > 100 µM | CCRF-CEM > 100 µM | HOP-92 > 100 µM | HT-29 > 100 µM | IGROV-1 > 100 µM | K562 > 100 µM | MCF7 > 100 µM | MOLT-4 > 100 µM | NCI-H23 > 100 µM | RPMI-8226 > 100 µM | SF-295 > 100 µM | SK-MEL-2 > 100 µM | SNB-19 > 100 µM | T47D > 100 µM | UACC-62 > 100 µM | UO-31 6 µM

C/C(=C\COc1cc(O)c2c(c1)C(=O)c1cc(C)cc(O)c1C2=O)CCC1OC1(C)C (stereo unspecified)
inactive: A498 > 100 µM | A549 85.5 µM | BT-549 26.7 µM | CCRF-CEM 11.2 µM | HOP-92 29.4 µM | HT-29 > 100 µM | IGROV-1 68.9 µM | K562 83.8 µM | MCF7 38.4 µM | MOLT-4 7.85 µM | NCI-H23 > 100 µM | RPMI-8226 93.8 µM | SF-295 > 100 µM | SK-MEL-2 > 100 µM | SNB-19 > 100 µM | T47D 49.4 µM | UACC-62 40.3 µM | UO-31 > 100 µM

CCn1c(-c2c(Cl)cc(O)cc2Cl)cc2c(Cl)cc(O)cc21
inactive: A498 13.9 µM | A549 4.42 µM | BT-549 4.5 µM | CCRF-CEM 6.04 µM | HOP-92 13.8 µM | HT-29 1.58 µM | IGROV-1 3.21 µM | K562 3.41 µM | MCF7 3.71 µM | MOLT-4 8.87 µM | NCI-H23 7.78 µM | RPMI-8226 5.81 µM | SF-295 4.05 µM | SK-MEL-2 4.02 µM | SNB-19 8.47 µM | T47D 7.62 µM | UACC-62 8.49 µM | UO-31 7.83 µM

CCOC(=O)CNC(=O)OCc1ccccc1
inactive: A498 > 100 µM | A549 > 100 µM | CCRF-CEM > 100 µM | DLD-1 > 100 µM | HOP-92 > 100 µM | HT-29 > 100 µM | IGROV-1 > 100 µM | K562 > 100 µM | MOLT-4 > 100 µM | NCI-H23 > 100 µM | SF-295 > 100 µM | SK-MEL-2 > 100 µM | SNB-19 > 100 µM | UACC-62 > 100 µM | UO-31 > 100 µM
